The text below walks through data of patent publication US20040235012A1, “Method of detecting antibiotic resistance in microorganisms” (priority 2003, published 2004).

In one assay the test system is S. aureus strains. The experiment in a line: E-Test MIC of oxacillin. In kind it is cell-based. As to conditions: Staphylococcus aureus.
The test system of assay [1] is low-level resistant strains (MRSA). As to conditions: cited from earlier work.

For orientation: MIC means the least concentration at which growth counts as inhibited. On to `Cc1onc(-c2ccccc2)c1C(=O)N[C@@H]1C(=O)N2[C@@H]1SC(C)(C)[C@@H]2C(=O)O` [OX, oxacillin], for which the MIC in the assay on S. aureus strains (strain 31 (mecA −, PBP2 −)) was 0.25 µg/mL; in the assay on S. aureus strains (strain 34 (mecA +, PBP2 +)), 16 µg/mL; in the assay with S. aureus strains (strain 2325 (mecA −, PBP2 −)) it was 0.19 µg/mL; in the assay with S. aureus strains (strain 3421 (mecA +)) it was above 4 µg/mL; in the assay with S. aureus strains (strain 3424 (mecA −, PBP2 −)) it was 1.5 µg/mL; in the assay with S. aureus strains (strain 3425 (mecA −, PBP2 −)), 0.38 µg/mL. Moreover, the MIC stood at 0.38 µg/mL with S. aureus strains (strain 5594 (mecA +, PBP2 +)); 0.5 µg/mL in the assay with S. aureus strains (strain 5595 (mecA +, PBP2 +)); 0.5 µg/mL in the assay on S. aureus strains (strain 5596 (mecA +, PBP2 +)); 32 µg/mL in the assay on S. aureus strains (strain 5597 (mecA +, PBP2 +)); 32 µg/mL with S. aureus strains (strain 5598 (mecA +, PBP2 +)); 16 µg/mL with S. aureus strains (strain 5599 (mecA +, PBP2 +)). Moreover, the MIC with S. aureus strains (strain T775 (mecA +, PBP2 +)) was 8 µg/mL; in the assay with S. aureus strains (strain T2109 (mecA +, PBP2 +)), 32 µg/mL; in the assay on S. aureus strains (strain T2110 (mecA +, PBP2 +)), 8 µg/mL; with S. aureus strains (strain T2130 (mecA +, PBP2 +)), 32 µg/mL; in the assay on S. aureus strains (strain T4031 (mecA +, PBP2 +)), 6 µg/mL; with S. aureus strains (strain T4033 (mecA +, PBP2 +)) it was 1.5 µg/mL. Also, the MIC with S. aureus strains (strain T4035 (mecA +, PBP2 +)) was 8 µg/mL. For the same molecule, the “oxacillin MIC of low-level resistant strains, at or just above the susceptible breakpoint” value in assay [1] is 4 to 8 µg/mL.
